As a reminder, the EC50 is the concentration at which the effect is half-maximal. Low readings indicate higher potency in that assay, high ones lower potency in that assay.

This assay concerns the target T1, CXCR7 (Homo sapiens, UniProt P25106).
T1 construct: host or cells: CHO-K1 (PathHunter CHO-K1 CXCR7 b-arrestin cell line, stably transfected)
The assay can be described thus: PathHunter CHO-K1 CXCR7 b-arrestin recruitment assay (CXCR7 agonistic activity). In kind it is cell-based. Particulars: PathHunter CHO-K1 CXCR7 b-arrestin cell line. The method, boiled down:
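Stable CHO-K1 line with C-terminally ProLink-tagged CXCR7 and β-arrestin 2–EA fusion; β-arrestin recruitment restores β-gal activity, read by chemiluminescence after 1 h RT detection. Cells seeded 24 h, starved in OPTIMEM 3–4 h, exposed to compounds 90 min at 37 °C in HBSS/HEPES/BSA. Geometric-mean EC50 from repeated measurements.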
A general note: Recruitment of arrestin is a read-out of receptor activation apart from second messengers.

T1 sequence (P25106 whole entry): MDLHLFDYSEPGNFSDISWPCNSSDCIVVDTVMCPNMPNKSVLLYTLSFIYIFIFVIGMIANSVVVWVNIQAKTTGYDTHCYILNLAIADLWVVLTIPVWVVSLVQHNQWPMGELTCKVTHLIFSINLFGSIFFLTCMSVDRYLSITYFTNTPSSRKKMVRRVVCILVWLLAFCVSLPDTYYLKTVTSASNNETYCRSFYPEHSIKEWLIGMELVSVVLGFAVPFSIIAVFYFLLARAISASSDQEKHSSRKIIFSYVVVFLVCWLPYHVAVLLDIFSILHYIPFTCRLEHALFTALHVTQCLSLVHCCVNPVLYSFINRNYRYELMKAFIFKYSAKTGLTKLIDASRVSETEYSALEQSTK
T1 sequence (P32121 whole entry partner): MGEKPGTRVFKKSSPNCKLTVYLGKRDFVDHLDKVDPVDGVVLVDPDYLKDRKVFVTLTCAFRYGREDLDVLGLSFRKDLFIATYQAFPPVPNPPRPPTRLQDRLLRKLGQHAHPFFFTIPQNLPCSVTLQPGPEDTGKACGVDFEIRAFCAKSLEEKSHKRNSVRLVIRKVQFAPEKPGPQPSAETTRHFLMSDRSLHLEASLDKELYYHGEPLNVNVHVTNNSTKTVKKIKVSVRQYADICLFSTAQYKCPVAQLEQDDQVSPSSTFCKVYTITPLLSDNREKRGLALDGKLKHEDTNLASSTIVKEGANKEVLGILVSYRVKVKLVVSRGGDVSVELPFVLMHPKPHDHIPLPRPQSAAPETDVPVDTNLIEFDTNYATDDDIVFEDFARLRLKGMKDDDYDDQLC

`CCN(CCN(Cc1ccccc1C(F)(F)F)C(=O)CNc1cccc2c1CCN(CC1CC1)C2)C(=O)OC(C)(C)C` [Example 232, {2-[[2-(2-Cyclopropylmethyl-1,2,3,4-tetrahydro-isoquinolin-5-ylamino)-acetyl]-(2-trifluoromethyl-benzyl)-amino]-ethyl}-ethyl-carbamic acid tert-butyl ester] registered an EC50 of 0.162 µM.

Regarding `CCN1Cc2cccc(NCC(=O)N(CCN(C)C)Cc3ncccc3C(F)(F)F)c2CC1=O` [Example 310, N-(2-Dimethylamino-ethyl)-2-(2-ethyl-3-oxo-1,2,3,4-tetrahydro-isoquinolin-5-ylamino)-N-(3-trifluoromethyl-pyridin-2-ylmethyl)-acetamide], it took 0.078 µM to reach a half-maximal effect (EC50).

`COCCN1CCc2c(cccc2NCC(=O)N(Cc2ncccc2Cl)CC(C)(C)O)C1` [Example 307, N-(3-Chloro-pyridin-2-ylmethyl)-N-(2-hydroxy-2-methyl-propyl)-2-[2-(2-methoxy-ethyl)-1,2,3,4-tetrahydro-isoquinolin-5-ylamino]-acetamide] yielded an EC50 of 0.423 µM.

`CN(C)CCN(Cc1ccccc1)C(=O)CNc1cccc2c1CCN(CCC(C)(C)C)C2` [compound 120] had an EC50 of 0.154 µM.

In turn, `CNCCN(Cc1ncccc1C(F)(F)F)C(=O)CNc1cccc2c1CCN(C(=O)COC)C2` [compound 413, 2-[2-(2-Methoxy-acetyl)-1,2,3,4-tetrahydro-isoquinolin-5-ylamino]-N-(2-methylamino-ethyl)-N-(3-trifluoromethyl-pyridin-2-ylmethyl)-acetamide] yielded an EC50 of 0.008 µM.

For the compound `COCCN1CCc2c(cccc2NCC(=O)N(CCN(C)CCF)Cc2ccccc2C(F)(F)F)C1` [Example 302, N-{2-[(2-Fluoro-ethyl)-methyl-amino]-ethyl}-2-[2-(2-methoxy-ethyl)-1,2,3,4-tetrahydro-isoquinolin-5-ylamino]-N-(2-trifluoromethyl-benzyl)-acetamide], the EC50 worked out at 0.027 µM.

Consider `Cc1cccnc1CN(CCN(C)C)C(=O)CNc1cccc2c1CCN(CC1CC1)C2` [Example 256, 2-(2-Cyclopropylmethyl-1,2,3,4-tetrahydro-isoquinolin-5-ylamino)-N-(2-dimethylamino-ethyl)-N-(3-methyl-pyridin-2-ylmethyl)-acetamide], for which the EC50 was 0.011 µM.

For `CN(CCN(Cc1ccccc1C(F)(F)F)C(=O)CNc1cccc2c1CCN(CC1CC1)C2)C1CC1` [Example 220, N-[2-(Cyclopropyl-methyl-amino)-ethyl]-2-(2-cyclopropylmethyl-1,2,3,4-tetrahydro-isoquinolin-5-ylamino)-N-(2-trifluoromethyl-benzyl)-acetamide], a half-maximal response (EC50) required 0.003 µM.

For the compound `CN(C)CCN(Cc1ccccc1)C(=O)CNc1cccc2c1CCN(C(=O)OC(C)(C)C)C2` [Example 8, 5-({[Benzyl-(2-dimethylamino-ethyl)-carbamoyl]-methyl}-amino)-3,4-dihydro-1H-isoquinoline-2-carboxylic acid tert-butyl ester], the EC50 was 0.23 µM.

As to `CN1CCC(N(Cc2ccccc2C(F)(F)F)C(=O)/C=C/c2cccc3c2CCN(CC2CC2)C3)CC1` [compound 152, (E)-3-(2-Cyclopropylmethyl-1,2,3,4-tetrahydro-isoquinolin-5-yl)-N-(1-methyl-piperidin-4-yl)-N-(2-trifluoromethyl-benzyl)-acrylamide], the EC50 was found to be 0.008 µM.

As to `CCC(=O)N1CCc2c(cccc2NCC(=O)N(CCc2ccccc2)CCN(C)C)C1` [Example 17, N-(2-Dimethylamino-ethyl)-N-phenethyl-2-(2-propionyl-1,2,3,4-tetrahydro-isoquinolin-5-ylamino)-acetamide], the EC50 is 0.135 µM.

`COC(=O)N1CCc2cccc(NCC(=O)N(CCN(C)C)Cc3ccccc3)c2C1` [Example 190, 8-({[Benzyl-(2-dimethylamino-ethyl)-carbamoyl]-methyl}-amino)-3,4-dihydro-1H-isoquinoline-2-carboxylic acid methyl ester] displayed an EC50 of 0.11 µM.

(Values after patent US9920010B2, “CXCR7 receptor modulators” (IDORSIA PHARMACEUTICALS LTD, priority 2013, dated 2018).)
